Assays:
Foxp3 = settings: literature (Valencia et al.; Zanin-Zhorov et al.); cited from earlier work
[1] = system: Treg suppressive function; settings: literature (Valencia et al.; Zanin-Zhorov et al.); cited from earlier work
[2] = system: Dlgh1 recruitment to the IS in Tregs; experiment: Dlgh1 recruitment to the immunological synapse on planar lipid bilayers, imaged by TIRFM; type: cell-based, human; settings: Tregs from healthy donors, 50 ng/mL overnight
Method: Planar lipid bilayers containing anti-CD3 antibodies (5 μg/mL) and ICAM-1 (250 molecules per mm^2) were prepared in parallel-plate flow cells as described (Zanin-Zhorov et al., “Protein Kinase C-Theta Mediates Negative Feedback on Regulatory T Cell Function,” Science 328:372-376 (2010), which is hereby incorporated by reference in its entirety). The flow cell containing the bilayers was warmed up to 37° C.; cells were injected in 500 μL of Hepes-buffered saline containing 1% human serum albumin; and images were collected on a custom automated Nikon inverted fluorescence microscope.
All TIRF imaging was performed on the custom automated Nikon inverted fluorescence microscope using the 100×/1.45 N.A. TIRF objective from Nikon. […]
The pro-inflammatory mediator TNF-α inhibits suppressive activity and down-regulates Foxp3 in human Treg (Valencia et al., “TNF Downmodulates the Function of Human CD4+CD25hi T-Regulatory Cells,” Blood 108(1):253-261 (2006); Zanin-Zhorov et al., “Protein Kinase C-Theta Mediates Negative Feedback on Regulatory T Cell Function,” Science 328(5976):372-376 (2010), both of which are hereby incorporated by reference in their entirety). To investigate whether Dlgh1 recruitment to IS correlates with suppressive function of Treg, Treg was incubated with TNF-α overnight and then analyzed Dlgh1 recruitment to the IS as described above. […]

[3] = system: Treg suppressive function; experiment: In vitro suppression assay (Tregs co-cultured with CD4+CD25- T cells at 1:3); type: cell-based, human; settings: pre-treatment of Treg at 1 μM for 30 minutes, supernatants after 48 hours
Method: In Vitro Suppression Assays—CD4^+CD25^+ T cells were treated or not, washed, and added at a ratio of 1:3 ([…]) to CD4^+CD25^− T cells at final concentration of 2×10^6 per mL (cytokine secretion) or 2×10^5 per mL (proliferation). The cells were co-cultured on anti-CD3 mAb (5 μg/mL) pre-coated 24-well plates for 24-48 hours (cytokine secretion) or 96 hours (proliferation). Human TNF-α (210-TA) was purchased from R&D Systems and added to co-cultures where indicated. […] Cytokine secretion was determined by ELISA as described (Zanin-Zhorov et al., “Protein Kinase C-Theta Mediates Negative Feedback on Regulatory T Cell Function,” Science 328:372-376 (2010), which is hereby incorporated by reference in its entirety), using human IFN-γ Cytoset (Biosource) and IL-17 and -4 (Invitrogen). Proliferation was assessed by carboxyfluorescein diacetate succinimidyl ester (CFSE) dilution as described (Tran et al., “Analysis of Adhesion Molecules, Target Cells, and Role of IL-2 in Human FOXP3+ Regulatory T Cell Suppressor Function,” J. Immunol. 182:2929-2938 (2009), which is hereby incorporated by reference in its entirety).

TNF-α
Foxp3 in human Treg (Foxp3): down-regulates | suppressive activity of human Treg [1]: inhibits | levels of Dlgh1 at IS in Tregs [2]: significantly reduced

C[S+]([O-])c1ccc(-c2nc(-c3ccncc3)c(-c3ccc(F)cc3)[nH]2)cc1 (stereo not shown) [SB203580]
ability of Treg to suppress IFN-γ secretion from CD4+CD25- T cells [3]: significantly down-regulated
